Source: patent US12662469B2 (SIRONAX LTD, priority 2018, dated 2026)

The molecules below were run on Cell Necrosis (assay: Cell necrosis assay / cell viability assay (necrosis inhibitor activity)). Settings: not given.
Type: cell-based
With `O=C1COc2cc(F)c(OC3CN(C(=O)N4N=CC[C@H]4c4ccccc4)C3)cc2N1` [Compound 192, (S)-7-fluoro-6-((1-(5-phenyl-4,5-dihydro-1H-pyrazole-1-carbonyl)azetidin-3-yl)oxy)-2H-benzo[b][1,4]oxazin-3(4H)-one] the “activity based on the cell activity assay” value was “potent activity”.

Same assay, conditions: necrosis inhibitor activity; EC data for 14-191 extrapolated; read-out: EC50
`N#Cc1csc(OC2CN(C(=O)N3N=CCC3c3cc(F)cc(F)c3)C2)n1` (centres unmarked) [Compound 131, 2-((1-(5-(3,5-difluorophenyl)-4,5-dihydro-1H-pyrazole-1-carbonyl)azetidin-3-yl)oxy)thiazole-4-carbonitrile] was tested, and the EC50 was 1 to 1000 nM.
Work on `O=C(N1CC(=Cc2c(F)cccc2F)C1)N1N=CCC1c1cc(F)cc(F)c1` (centres unmarked) [Compound 133, (3-(2,6-difluorobenzylidene)azetidin-1-yl)(5-(3,5-difluorophenyl)-4,5-dihydro-1H-pyrazol-1-yl)methanone] yielded an EC50 of 1 to 1000 nM.
For `O=C(N1CC(C(F)c2ccc(F)cc2F)C1)N1N=CCC1c1cc(F)cc(F)c1` (centres unmarked) [Compound 134, (5-(3,5-difluorophenyl)-4,5-dihydro-1H-pyrazol-1-yl)(3-((2,4-difluorophenyl)fluoromethyl)azetidin-1-yl)methanone], the EC50 was 1 to 1000 nM.
`O=C(N1CC(C(F)(F)c2ccc(F)cc2F)C1)N1N=CCC1c1cc(F)cc(F)c1` (centres unmarked) [Compound 135, (5-(3,5-difluorophenyl)-4,5-dihydro-1H-pyrazol-1-yl)(3-((2,4-difluorophenyl)difluoromethyl)azetidin-1-yl)methanone] showed an EC50 of 1 to 1000 nM.
`N#Cc1ccc(OC2CN(C(=O)N3N=CCC3c3cc(F)cc(F)c3)C2)c(F)c1` (centres unmarked) [Compound 136, 4-((1-(5-(3,5-difluorophenyl)-4,5-dihydro-1H-pyrazole-1-carbonyl)azetidin-3-yl)oxy)-3-fluorobenzonitrile] was tested, and the EC50 was 1 to 1000 nM.
In the case of `N#Cc1ccc(OC2CN(C(=O)N3N=CCC3c3cc(F)cc(F)c3)C2)cc1F` (centres unmarked) [Compound 137, 4-((1-(5-(3,5-difluorophenyl)-4,5-dihydro-1H-pyrazole-1-carbonyl)azetidin-3-yl)oxy)-2-fluorobenzonitrile], the EC50 is reported as 1 to 1000 nM.
Molecule `O=C(N1CC(=Cc2ccc(Cl)cc2F)C1)N1N=CCC1c1cc(F)cc(F)c1` (centres unmarked) [Compound 138] has an EC50 of 1 to 1000 nM.
Molecule `O=C(N1CC(=Cc2ccc(F)cc2Cl)C1)N1N=CCC1c1cc(F)cc(F)c1` (centres unmarked) [Compound 139, (3-(2-chloro-4-fluorobenzylidene)azetidin-1-yl)(5-(3,5-difluorophenyl)-4,5-dihydro-1H-pyrazol-1-yl)methanone] has an EC50 of 1 to 1000 nM.
Work on `O=C(N1CC(=Cc2ccc(F)c(F)c2)C1)N1N=CCC1c1cc(F)cc(F)c1` (centres unmarked) [Compound 140, (3-(3,4-difluorobenzylidene)azetidin-1-yl)(5-(3,5-difluorophenyl)-4,5-dihydro-1H-pyrazol-1-yl)methanone] yielded an EC50 of 1 to 1000 nM.
Work on `O=C(N1CC(Oc2ccc(F)nc2)C1)N1N=CCC1c1cc(F)cc(F)c1` (centres unmarked) [Compound 141, (5-(3,5-difluorophenyl)-4,5-dihydro-1H-pyrazol-1-yl)(3-((6-fluoropyridin-3-yl)oxy)azetidin-1-yl)methanone] yielded an EC50 of 1 to 1000 nM.
Work on `O=C(N1CC(Oc2ccc(F)cc2F)C1)N1N=CC[C@H]1c1cc(F)cc(F)c1` [Compound 142] yielded an EC50 of 1 to 1000 nM.
`O=C(N1CC(Oc2ccc(F)cc2)C1)N1N=CC[C@H]1c1cc(F)cc(F)c1` [Compound 143] gave an EC50 of 1 to 1000 nM.
`O=C(N1CC(Oc2ccccc2F)C1)N1N=CC[C@H]1c1cc(F)cc(F)c1` [Compound 144] showed an EC50 of 1 to 1000 nM.
`O=C(N1CC(Oc2ccc(F)nc2F)C1)N1N=CC[C@H]1c1cc(F)cc(F)c1` [Compound 145] gave an EC50 of 1 to 1000 nM.
Work on `NC(=O)c1ccc(OC2CN(C(=O)N3N=CCC3c3cc(F)cc(F)c3)C2)cc1F` (centres unmarked) [Compound 155] yielded an EC50 of 1 to 1000 nM.
Molecule `NC(=O)c1c(F)cc(OC2CN(C(=O)N3N=CCC3c3cc(F)cc(F)c3)C2)cc1F` (centres unmarked) [Compound 156] has an EC50 of 1 to 1000 nM.
For `NC(=O)c1c(F)cc(OC2CN(C(=O)N3N=CCC3c3cc(F)cc(F)c3)C2)cc1Cl` (centres unmarked) [Compound 157], the EC50 was 1 to 1000 nM.
`NC(=O)c1cc(OC2CN(C(=O)N3N=CCC3c3cc(F)cc(F)c3)C2)ccc1Cl` (centres unmarked) [Compound 158] was tested, and the EC50 was 1 to 1000 nM.
`NC(=O)c1cc(OC2CN(C(=O)N3N=CCC3c3cc(F)cc(F)c3)C2)ccc1F` (centres unmarked) [Compound 159] showed an EC50 of 1 to 1000 nM.
Work on `CNC(=O)c1c(F)cc(OC2CN(C(=O)N3N=CCC3c3cc(F)cc(F)c3)C2)cc1F` (centres unmarked) [Compound 160] yielded an EC50 of 1 to 1000 nM.
For `CNC(=O)c1cc(OC2CN(C(=O)N3N=CCC3c3cc(F)cc(F)c3)C2)ccc1Cl` (centres unmarked) [Compound 161], the EC50 was 1 to 1000 nM.
With `CNC(=O)c1cc(OC2CN(C(=O)N3N=CCC3c3cc(F)cc(F)c3)C2)ccc1F` (centres unmarked) [Compound 162] the EC50 was 1 to 1000 nM.
`CNC(=O)c1cccc(OC2CN(C(=O)N3N=CCC3c3cc(F)cc(F)c3)C2)c1` (centres unmarked) [Compound 163] showed an EC50 of 1 to 1000 nM.
With `CNC(=O)c1cccc(OC2CN(C(=O)N3N=CCC3c3cc(F)cc(F)c3)C2)c1Cl` (centres unmarked) [Compound 164] the EC50 was 1 to 1000 nM.
`CNC(=O)c1ccc(OC2CN(C(=O)N3N=CCC3c3cc(F)cc(F)c3)C2)cc1` (centres unmarked) [Compound 165] showed an EC50 of 1 to 1000 nM.
`O=C(N1CC(Oc2ccc(-c3ncc[nH]3)cc2)C1)N1N=CCC1c1cc(F)cc(F)c1` (centres unmarked) [Compound 166] was tested, and the EC50 was 1 to 1000 nM.
Molecule `O=C1NCc2cc(OC3CN(C(=O)N4N=CCC4c4cc(F)cc(F)c4)C3)ccc21` (centres unmarked) [Compound 167] has an EC50 of 1 to 1000 nM.
Work on `O=C1NCc2c1csc2OC1CN(C(=O)N2N=CCC2c2cc(F)cc(F)c2)C1` (centres unmarked) [Compound 168] yielded an EC50 of 1 to 1000 nM.
Work on `O=C(N1CC(Oc2scc3c(=O)[nH]cnc23)C1)N1N=CCC1c1cc(F)cc(F)c1` (centres unmarked) [Compound 169] yielded an EC50 of 1 to 1000 nM.
`CNC(=O)c1nc(OC2CN(C(=O)N3N=CCC3c3cc(F)cc(F)c3)C2)sc1F` (centres unmarked) [Compound 170] gave an EC50 of 1 to 1000 nM.
With `CNC(=O)c1csc(OC2CN(C(=O)N3N=CCC3c3cc(F)cc(F)c3)C2)n1` (centres unmarked) [Compound 171] the EC50 was 1 to 1000 nM.
For `CNC(=O)c1nc(OC2CN(C(=O)N3N=CCC3c3cc(F)cc(F)c3)C2)oc1F` (centres unmarked) [Compound 172], the EC50 was 1 to 1000 nM.
In the case of `CNC(=O)c1coc(OC2CN(C(=O)N3N=CCC3c3cc(F)cc(F)c3)C2)n1` (centres unmarked) [Compound 173], the EC50 is reported as 1 to 1000 nM.
`O=C(N1CC(Oc2nc3c(=O)[nH]ccc3s2)C1)N1N=CCC1c1cc(F)cc(F)c1` (centres unmarked) [Compound 174] gave an EC50 of 1 to 1000 nM.
`Cc1csc(OC2CN(C(=O)N3N=CCC3c3cc(F)cc(F)c3)C2)n1` (centres unmarked) [Compound 175] showed an EC50 of 1 to 1000 nM.
`Cc1cnc(OC2CN(C(=O)N3N=CCC3c3cc(F)cc(F)c3)C2)s1` (centres unmarked) [Compound 176] gave an EC50 of 1 to 1000 nM.
Molecule `O=C(N1CC(Oc2ccc3cc[nH]c3c2)C1)N1N=CCC1c1cc(F)cc(F)c1` (centres unmarked) [Compound 177] has an EC50 of 1 to 1000 nM.
`O=C(N1CC(Oc2ccc3nc[nH]c3c2)C1)N1N=CCC1c1cc(F)cc(F)c1` (centres unmarked) [Compound 178] showed an EC50 of 1 to 1000 nM.
With `O=C(N1CC(Oc2nc3[nH]c(=O)ccc3s2)C1)N1N=CCC1c1cc(F)cc(F)c1` (centres unmarked) [Compound 179] the EC50 was 1 to 1000 nM.
Molecule `O=C1NCc2cc(OC3CN(C(=O)N4N=CCC4c4cc(F)cc(F)c4)C3)ccc21` (centres unmarked) [Compound 180] has an EC50 of 1 to 1000 nM.
`O=C(N1CC(Oc2ccc3ccc(=O)[nH]c3c2)C1)N1N=CCC1c1cc(F)cc(F)c1` (centres unmarked) [Compound 181] showed an EC50 of 1 to 1000 nM.
`O=C(N1CC(Oc2ccc3cn[nH]c3c2)C1)N1N=CCC1c1cc(F)cc(F)c1` (centres unmarked) [Compound 182] gave an EC50 of 1 to 1000 nM.
With `O=C(N1CC(=Cc2ccc3cc[nH]c3c2)C1)N1N=CCC1c1cc(F)cc(F)c1` (centres unmarked) [Compound 184] the EC50 was 1 to 1000 nM.
`O=C(N1CC(Oc2ccc3oc(=O)[nH]c3c2)C1)N1N=CCC1c1cc(F)cc(F)c1` (centres unmarked) [Compound 185] was tested, and the EC50 was 1 to 1000 nM.
`O=C(N1CC(Oc2ccc(=O)[nH]c2)C1)N1N=CCC1c1cc(F)cc(F)c1` (centres unmarked) [Compound 186] showed an EC50 of 1 to 1000 nM.
`O=C(N1CC(=Cc2ccc(=O)[nH]c2)C1)N1N=CCC1c1cc(F)cc(F)c1` (centres unmarked) [Compound 187] gave an EC50 of 1 to 1000 nM.
In the case of `Cn1c(OC2CN(C(=O)N3N=CCC3c3cc(F)cc(F)c3)C2)cccc1=O` (centres unmarked) [Compound 188], the EC50 is reported as 1 to 1000 nM.
`O=C(N1CC(Oc2ccc3ccc(=O)[nH]c3c2)C1)N1N=CCC1c1cc(F)cc(F)c1` (centres unmarked) [Compound 189] showed an EC50 of 1 to 1000 nM.
In the case of `O=C(N1CC(=Cc2ccc3ccc(=O)[nH]c3c2)C1)N1N=CCC1c1cc(F)cc(F)c1` (centres unmarked) [Compound 190], the EC50 is reported as 1 to 1000 nM.
`O=C(N1CC(Cc2ccc3nc[nH]c3c2)C1)N1N=CCC1c1cc(F)cc(F)c1` (centres unmarked) [Compound 191] gave an EC50 of 1 to 1000 nM.

Same assay, conditions: necrosis inhibitor activity; compounds outside 14-191; read-out: EC50
Work on `O=C1COc2cc(F)c(OC3CN(C(=O)N4N=CC[C@H]4c4ccccc4)C3)cc2N1` [Compound 192, (S)-7-fluoro-6-((1-(5-phenyl-4,5-dihydro-1H-pyrazole-1-carbonyl)azetidin-3-yl)oxy)-2H-benzo[b][1,4]oxazin-3(4H)-one] yielded an EC50 of 1 to 1000 nM.
`O=C1COc2cc(F)c(OC3CN(C(=O)N4N=CC[C@H]4c4cc(F)cc(F)c4)C3)cc2N1` [Compound 193, (S)-6-((1-(5-(3,5-difluorophenyl)-4,5-dihydro-1H-pyrazole-1-carbonyl)azetidin-3-yl)oxy)-7-fluoro-2H-benzo[b][1,4]oxazin-3(4H)-one] showed an EC50 of 1 to 1000 nM.
Molecule `O=C1COc2cc(F)c(OC3CN(C(=O)N4N=CC[C@H]4c4cncc(F)c4)C3)cc2N1` [Compound 194, (S)-7-fluoro-6-((1-(5-(5-fluoropyridin-3-yl)-4,5-dihydro-1H-pyrazole-1-carbonyl)azetidin-3-yl)oxy)-2H-benzo[b][1,4]oxazin-3(4H)-one] has an EC50 of 1 to 1000 nM.
`N#Cc1cccc([C@@H]2CC=NN2C(=O)N2CC(Oc3cc4c(cc3F)OCC(=O)N4)C2)c1` [Compound 195] was tested, and the EC50 was 1 to 1000 nM.
`O=C1COc2cc(F)c(O[C@@H]3CCN(C(=O)N4N=CC[C@H]4c4cc(F)cc(F)c4)C3)cc2N1` [Compound 196] was tested, and the EC50 was 1 to 1000 nM.
In the case of `N#Cc1cncc([C@@H]2CC=NN2C(=O)N2CC(Oc3cc4c(cc3F)OCC(=O)N4)C2)c1` [Compound 197, (S)-5-(1(3-((7-fluoro-3-oxo-3,4-dihydro-2H-benzo[b][1,4]oxazin-6-yl)oxy)azetidine-1-carbonyl)-4,5-dihydro-1H-pyrazol-5-yl)nicotinonitrile], the EC50 is reported as 1 to 1000 nM.
`N#Cc1cc(F)cc([C@@H]2CC=NN2C(=O)N2CC(Oc3ccc4c(c3)NC(=O)CO4)C2)c1` [Compound 198, (S)-3-fluoro-5-(1-(3-((3-oxo-3,4-dihydro-2H-benzo[b][1,4]oxazin-6-yl)oxy)azetidine-1-carbonyl)-4,5-dihydro-1H-pyrazol-5-yl)benzonitrile] gave an EC50 of 1 to 1000 nM.
With `O=C1COc2ccc(OC3CN(C(=O)N4N=CC[C@H]4c4ccccc4)C3)cc2N1` [Compound 199, (S)-6-((1-(5-phenyl-4,5-dihydro-1H-pyrazole-1-carbonyl)azetidin-3-yl)oxy)-2H-benzo[b][1,4]oxazin-3(4H)-one] the EC50 was 1 to 1000 nM.
